Where a name gives a salt, the structure may show the parent alone. Read-outs that look alike come from different tables or passages of the source.
Key:
Clostridium perfringens = experiment: microbe, parasite or virus in culture; type: cell-based
Prevotella spp. = experiment: Gyrase MIC, agar dilution method (Protocol 3); type: cell-based; details: 13 isolates tested
S. aureus (ATCC 29213) = experiment: Neutropenic rat thigh infection model; type: in vivo, Sprague Dawley rats
Excerpt: Animals: Specific-pathogen-free, male Sprague Dawley rats weighing between 76 to 100 grams were obtained from Charles River Laboratories, Inc. (Wilmington, Mass.) and utilized in this experiment. Animals were allowed to acclimate for a minimum of seven (7) days before study commencement. Bacteria: The methicillin-sensitive Staphylococcus aureus(MSSA) ATCC strain 29213 was utilized for in vivo experimentation. The test isolate was subcultured twice onto standard microbiological agar media (trypticase soy agar with 5% sheep blood). The second transfer was made less than 24 hours before use in the preparation of the thigh infection model inoculum. Neutropenic Rat Thigh Infection Model: To induce neutropenia, rats were treated with the immunosuppressant cyclophosphamide at 150 mg/kg, administered in 1 ml by intraperitoneal (IP) injection, three day prior to infection. Rats were infected by an intramuscular (IM) 0.2 ml injection into both rear thighs with a 10^7 cfu/ml methicillin-sensitive Staphylococcus aureus 29213 suspension in normal saline. After increasing amounts of time (2-26 hours) the two rear thighs of each animal were harvested, rinsed with sterile saline, weighed, then placed in 50 ml sterile normal saline and placed on wet ice until homogenization. Approximately one-half of the total homogenized sample volume was passed through a large pore filter (to remove cartilage and large clumped pieces of tissue), diluted in saline and cultured onto agar media plates (trypticase soy agar with 5% sheep blood). All culture plates were incubated at approximately 37° C. for 18-24 hours. Colony-forming units were enumerated (in cfu/ml of homogenate) and the median for each treatment and control group was calculated. […] The median cfu/ml per group was compared to the initial bacterial density at 2 hours (Early Control) or that of the time-matched vehicle control group (Late Control; LC) group harvested simultaneously. […] After 2 hours a single group of rats (Early Control (EC) was euthanized and the thighs harvested, homogenized and plated to quantitate S. aureus burdens. The additional infected rats were treated by oral gavage with Vehicle at 10 ml/kg (20% Cavitron/1% HPMCAS-MG; […] The 8-hour treatment groups received a single treatment (QD) and were euthanized and thighs collected for cfu determination 8 hours post treatment (QD), while the 24-hour treatment groups received 2 doses 12 hours apart (q12 h) and were euthanized and thighs collected 24 hours post treatment. […] After 2 hours a single group of rats (Early Control (EC)) was euthanized and the thighs harvested, homogenized and plated to quantitate S. aureus burdens. The additional infected rats were treated by oral gavage with Vehicle at 10 ml/kg (10% Vitamin E/TPGS; […] The 8-hour treatment groups received a single treatment (QD) and were euthanized and thighs collected for cfu determination 8 hours post treatment (QD), while the 24 hour treatment groups received 2 doses 12 hours apart (q12 h) and were euthanized and thighs collected 24 hours post treatment.

Enterobacter cloacae = experiment: Gyrase MIC against Gram negatives, microdilution broth method (Protocol 2); type: cell-based; details: 12 isolates tested
[1] = tested on: Mycobacterium tuberculosis; experiment: Mycobacterium tuberculosis serum shift MIC assay (Protocol 5); type: cell-based; details: ATCC 35801 / ERDMAN
Excerpt: Protocol 5. Protocol for Mycobacterium tuberculosis Serum Shift MIC Assay
Media Prep: • 1. […] It was important that all media and supplements were sterilized prior to MICs. • 2. Prepared all media below and inoculated as described in next section. Tested all compounds against Mtb using each media. • a. […] 7H9+0.2% glycerol+2 g/L dextrose+0.85 g/L NaCl+0.003 g/L catalase (0% FBS). • c. 2×7H9+0.2% glycerol+2 g/L dextrose+0.85 g/L NaCl+0.003 g/L catalase combined with equal volume Fetal Bovine Serum (50% FBS).
Inoculum Prep: • 1. […] Typically plates were two to three weeks of age when used for this assay due to the slow growth of this organism in culture. • 2. Vortexed well, then sonicated in water bath for 30 sec providing a suspension of ˜10^8 cells/ml. […] Prepared inoculum in each of the three media formulations by diluting the BBL Prompt suspension 1/200 (for example: transferred 0.2 ml of cells to 40 ml of medium) to obtain a starting cell density of ˜10^6 cells/ml. • 4.
After 24 hours the fluorescence of each well was measured at Excitation 492 nm, Emission 595 nm.
Percent inhibition by a given compound was calculated as follows: Percent inhibition=100−([well fluorescence-average background fluorescence]/[DMSO control−average background fluorescence]×100).

Streptococcus pneumoniae = experiment: Gyrase MIC, microdilution broth method (Protocol 1)
[2] = 8 hours after the first dose, 10 mg/kg oral
[3] = 8 hours after the first dose, 60 mg/kg oral
[4] = 8 hours after the first dose, 100 mg/kg oral
[5] = Table 9: 10 mg/kg oral, QD, 8 Hours
[6] = Table 9: 10 mg/kg oral, q12 h, 24 Hours
[7] = Table 9: 60 mg/kg oral, QD, 8 Hours
[8] = Table 9: 60 mg/kg oral, q12 h, 24 Hours
[9] = Table 9: 100 mg/kg oral, QD, 8 Hours
[10] = Table 9: 100 mg/kg oral, q12 h, 24 Hours

CCNC(=O)Nc1nc2cc(-c3cnc(C(C)(C)O)nc3)cc([C@H]3CCCO3)c2[nH]1 [Compound 13, methanesulfonic acid salt of 1-ethyl-3-[5-[2-(1-hydroxy-1-methyl-ethyl)pyrimidin-5-yl]-7-[(2R)-tetrahydrofuran-2-yl]-1H-benzimidazol-2-yl]urea]
MIC90 (Clostridium perfringens): 0.5 µg/mL
MIC90 (Prevotella spp.): > 16 µg/mL
bacterial growth compared to early control (S. aureus (ATCC 29213); [2]): held the bacterial growth of SA 29213 to at least the point of stasis
log reduction in burdens compared to time-matched control (S. aureus (ATCC 29213); [2]): ~1.5 log
decrease of bacterial burden versus early control (S. aureus (ATCC 29213); [3]): ~0.4 logs
log reduction in burdens compared to time-matched control (S. aureus (ATCC 29213); [3]): ~1.7 log
decrease of bacterial burden versus early control (S. aureus (ATCC 29213); [4]): ~0.5 logs
log reduction in burdens compared to time-matched control (S. aureus (ATCC 29213); [4]): 1.8 log
decrease in bacterial density compared to early control (S. aureus (ATCC 29213); 24 hours, second dose at 12 hours, 60 and 100 mg/kg): approximately 1 log
reduction of bacterial density compared to late control (S. aureus (ATCC 29213); 24 hours, 10 mg/kg treatment group): ~1.1 log
cfu levels greater than the early control (S. aureus (ATCC 29213); 24 hours, 30 mg/kg (so in the source), did not appear effective): 0.3 logs
reduction of bacterial density compared to late control (S. aureus (ATCC 29213); 24 hours, 60 mg/kg): 2.85 logs
reduction of bacterial density compared to late control (S. aureus (ATCC 29213); 24 hours, 100 mg/kg): ~3 logs
Median Thigh Burden (Log cfu/mL) (S. aureus (ATCC 29213); Table 9: 10 mg/kg oral gavage, single treatment (QD), 8 Hours): 5.15 Log cfu/mL
Median Thigh Burden (Log cfu/mL) (S. aureus (ATCC 29213); Table 9: 10 mg/kg oral, 2 doses 12 hours apart (q12 h), 24 Hours): 6.02 Log cfu/mL
Log Difference vs. Early Control (S. aureus (ATCC 29213); [5]): −0.15
Log Difference vs. Late Control (8-hour) (S. aureus (ATCC 29213); [5]): −1.49
Log Difference vs. Early Control (S. aureus (ATCC 29213); [6]): 0.72
Log Difference vs. Late Control (24-hour) (S. aureus (ATCC 29213); [6]): −1.14
Log Difference vs. Early Control (S. aureus (ATCC 29213); [7]): −0.35
Log Difference vs. Late Control (8-hour) (S. aureus (ATCC 29213); [7]): −1.69
Median Thigh Burden (Log cfu/mL) (S. aureus (ATCC 29213); [7]): 4.95 Log cfu/mL
Log Difference vs. Early Control (S. aureus (ATCC 29213); [8]): −0.99
Log Difference vs. Late Control (24-hour) (S. aureus (ATCC 29213); [8]): −2.85
Median Thigh Burden (Log cfu/mL) (S. aureus (ATCC 29213); [8]): 4.31 Log cfu/mL
Log Difference vs. Early Control (S. aureus (ATCC 29213); [9]): −0.48
Log Difference vs. Late Control (8-hour) (S. aureus (ATCC 29213); [9]): −1.82
Median Thigh Burden (Log cfu/mL) (S. aureus (ATCC 29213); [9]): 4.82 Log cfu/mL
Log Difference vs. Early Control (S. aureus (ATCC 29213); [10]): −1.13
Log Difference vs. Late Control (24-hour) (S. aureus (ATCC 29213); [10]): −2.99
Median Thigh Burden (Log cfu/mL) (S. aureus (ATCC 29213); [10]): 4.17 Log cfu/mL
MIC90 (Enterobacter cloacae): > 8 µg/mL
MIC ([1]; M. tuberculosis Erdman ATCC 35801, read-out: MIC): 0.045 µg/mL
MIC ([1]; M. tuberculosis Erdman ATCC 35801 with Mouse Serum): 2 µg/mL
MIC90 (Streptococcus pneumoniae): 0.06 µg/mL
MIC Range (Streptococcus pneumoniae; 67 isolates tested, Protocol 1): 0.015 to 0.06 µg/mL
MIC (Streptococcus pneumoniae; ATCC10015): 0.022 µg/mL

Reference: patent US8481551B2, “Gyrase and topoisomerase IV inhibitors” (Vertex Pharmaceuticals Incorporated, priority 2011, dated 2013)
